The numbers were not newly measured in patent US11999734B2, “Compounds and compositions for the treatment of cystic fibrosis” (Fondazione Istituto Italiano Di Tecnologia, priority 2018, dated 2024), which cites them from elsewhere.

The test system of data set [1] is CF patients.
Data set [2] has as its target F508del-CFTR (Homo sapiens, UniProt P13569, DEL508-508). Particulars: chronic treatment of cells with VX-770; Cholon et al. 2014, Veit et al. 2014.

Chain of F508del-CFTR (P13569 with tags, fused parts or gaps DEL508-508): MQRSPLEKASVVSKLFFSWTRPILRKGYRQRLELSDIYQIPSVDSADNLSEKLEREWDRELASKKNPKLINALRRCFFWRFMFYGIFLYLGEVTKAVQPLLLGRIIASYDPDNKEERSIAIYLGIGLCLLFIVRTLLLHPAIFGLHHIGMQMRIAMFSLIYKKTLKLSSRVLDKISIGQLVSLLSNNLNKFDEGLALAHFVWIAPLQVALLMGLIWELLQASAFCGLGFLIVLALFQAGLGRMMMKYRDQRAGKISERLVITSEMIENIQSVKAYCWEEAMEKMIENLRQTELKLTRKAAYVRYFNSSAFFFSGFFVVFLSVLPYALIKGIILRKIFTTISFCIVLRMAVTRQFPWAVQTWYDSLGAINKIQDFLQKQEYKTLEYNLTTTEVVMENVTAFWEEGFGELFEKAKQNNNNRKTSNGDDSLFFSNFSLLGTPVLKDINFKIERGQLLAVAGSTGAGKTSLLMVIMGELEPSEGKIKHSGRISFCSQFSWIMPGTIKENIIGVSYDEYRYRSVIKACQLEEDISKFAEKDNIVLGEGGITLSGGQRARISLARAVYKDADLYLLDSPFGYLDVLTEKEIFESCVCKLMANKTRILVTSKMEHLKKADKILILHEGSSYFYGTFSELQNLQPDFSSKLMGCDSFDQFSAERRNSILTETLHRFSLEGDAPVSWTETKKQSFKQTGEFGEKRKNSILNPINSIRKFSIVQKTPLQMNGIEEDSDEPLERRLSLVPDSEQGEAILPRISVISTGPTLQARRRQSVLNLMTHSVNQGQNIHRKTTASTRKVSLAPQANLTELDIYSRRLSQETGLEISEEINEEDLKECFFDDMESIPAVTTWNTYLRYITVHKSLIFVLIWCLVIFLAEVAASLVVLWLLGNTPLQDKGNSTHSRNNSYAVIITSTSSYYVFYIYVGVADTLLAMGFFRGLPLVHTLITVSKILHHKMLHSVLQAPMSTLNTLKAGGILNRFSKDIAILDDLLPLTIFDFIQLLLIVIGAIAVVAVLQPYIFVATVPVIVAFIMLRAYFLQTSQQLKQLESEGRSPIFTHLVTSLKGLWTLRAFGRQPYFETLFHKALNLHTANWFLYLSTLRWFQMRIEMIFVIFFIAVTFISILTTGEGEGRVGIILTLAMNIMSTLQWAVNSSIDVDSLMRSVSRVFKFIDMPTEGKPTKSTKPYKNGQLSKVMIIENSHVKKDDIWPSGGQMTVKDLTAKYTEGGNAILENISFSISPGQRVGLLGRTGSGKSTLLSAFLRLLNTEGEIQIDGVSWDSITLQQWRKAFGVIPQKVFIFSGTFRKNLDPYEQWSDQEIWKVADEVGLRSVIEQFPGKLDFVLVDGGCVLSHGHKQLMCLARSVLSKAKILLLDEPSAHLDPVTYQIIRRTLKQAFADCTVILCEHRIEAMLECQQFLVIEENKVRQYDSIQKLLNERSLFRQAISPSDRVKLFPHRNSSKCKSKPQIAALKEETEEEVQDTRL

`Cc1ccc(NC(=O)C2(c3ccc4c(c3)OC(F)(F)O4)CC2)nc1-c1cccc(C(=O)O)c1` [VX-809, lumacaftor]: the “therapeutic benefit in clinical trials” value in data set [1] (CF patients with F508del mutation, Clancy et al. 2012) is listed as “did not show a clear therapeutic benefit”.

With `CC(C)(C)c1cc(C(C)(C)C)c(NC(=O)c2c[nH]c3ccccc3c2=O)cc1O` [VX-770, ivacaftor], the “effect on corrector activity of VX-809” value in data set [2] is reported as “decreases the corrector activity of VX-809”. Moreover, in data set [1] (VX-770, Ramsey et al. 2011), the “efficacy in clinical trials” value is on record as “high efficacy”.
